Assay results published in patent US20240325398A1, “COMBINATION THERAPIES” (Infinity Pharmaceuticals, Inc., priority 2014, published 2024).

What was measured:
[1] = Combination study, ATPLite 72 h, dose matrix (Synergy Score, CI50); details: combination with Compound 1; OPM-2
Description: (§1) Cells are thawed from a liquid nitrogen preserved state. Once cells have been expanded and divide at their expected doubling times, screening begins. Cells are seeded in growth media in either black 1536-well or 384-well tissue culture treated plates. Cells are then equilibrated in assay plates via centrifugation and placed in incubators attached to the Dosing Modules at 37° C. for 24 hours before treatment. […] These Tzero (To) plates are read using ultra-sensitive luminescence on Envision plate readers (Perkin Elmer). Treated assay plates are incubated with compound for 72 hours. After 72 hours, plates are developed for endpoint analysis using ATPLite. All data points are collected via automated processes, quality controlled and analyzed using Zalicus software.
(§2) where T is treated cell count and V is untreated (vehicle) cell count (at 72 hours). I ranges from 0% (when T=V) to 100% (when T=0). […] The measure of effect in the experiment can be the inhibition of cellular response relative to the untreated level (vehicle alone). […] The inhibition ranges from 0% at the untreated level to 100% when T=0. Inhibition levels are negative for agents that actually increase levels. Other effect measures, such as an activity ratio r=T/V may be more appropriate for some assays. When activity ratios (e.g, fold increase over stimulated control) are being used, the effect can be measured using an induction 1=ln(T/V). With this definition, all effect expressions are the same as for inhibition.
(§3) Growth Inhibition (GI) is used as a measure of cell viability. […] A GI reading of 100% represents complete growth inhibition—T72 compound-treated and T0 vehicle signals are matched. […] A GI reading of 200% represents complete death of all cells in the culture well. Compounds reaching an activity plateau of GI 200% are considered cytotoxic. GI is calculated by applying the following test and equation:
(§4) Combination analysis data were collected in a 6×6 dose matrix. Synergy is calculated by comparing a combination's response to those of its single compound, against the drug-with-itself dose-additive reference model. Deviations from dose additivity may be assessed visually on an isobologram or numerically with a Combination Index (CI). […] Additive effect is CI=1.0. […] Antagonistic effect is CI>1.0.
(§5) To measure combination effects in excess of Loewe additivity, a scalar measure to characterize the strength of synergistic interaction termed the Synergy Score is devised. The Synergy Score is calculated as:
(§6) The fractional inhibition for each component agent and combination point in the matrix is calculated relative to the median of all vehicle-treated control wells. The Synergy Score equation integrates the experimentally-observed activity volume at each point in the matrix in excess of a model surface numerically derived from the activity of the component agents using the Loewe model for additivity. Additional terms in the Synergy Score equation (above) are used to normalize for various dilution factors used for individual agents and to allow for comparison of synergy scores across an entire experiment. The inclusion of positive inhibition gating or an Idata multiplier removes noise near the zero effect level, and biases results for synergistic interactions at that occur at high activity levels.
(§7) Loewe Volume (Loewe Vol) is used to assess the overall magnitude of the combination interaction in excess of the Loewe additivity model. Loewe Volume is particularly useful when distinguishing synergistic increases in a phenotypic activity (positive Loewe Volume) versus synergistic antagonisms (negative Loewe Volume). […] This model defines additivity as a non-synergistic combination interaction where the combination dose matrix surface should be indistinguishable from either drug crossed with itself.

OMP-2 = assay: as above; details: combination with Compound 1; OPM-2
Description: as §1, §2, §3, §4, §5, §6, §7

TMD8 = assay: as above; details: combination with Compound 1; TMD8; 72 h
KARPAS-299 = assay: as above; details: combination with Compound 1
OCI-Ly3 = assay: as above; details: combination with Compound 1; OCI-Ly3; 72 h
RPMI-8226 = assay: as above; details: combination with Compound 1
DOHH-2 = assay: as above; details: combination with Compound 1, 72 h
Description: as §1
The measure of effect in the experiment can be the inhibition of cellular response relative to the untreated level (vehicle alone). […] The inhibition ranges from 0% at the untreated level to 100% when T=0. Inhibition levels are negative for agents that actually increase levels.
as §3, §4, §5, §6
(§8) Loewe Volume (Loewe Vol) is used to assess the overall magnitude of the combination interaction in excess of the Loewe additivity model. Loewe Volume is particularly useful when distinguishing synergistic increases in a phenotypic activity (positive Loewe Volume) versus synergistic antagonisms (negative Loewe Volume). […] This model defines additivity as a non-synergistic combination interaction where the combination dose matrix surface should be indistinguishable from either drug crossed with itself. The calculation for Loewe additivity is:

HBL-1 = assay: as above; details: combination with Compound 1, 72 h
Description: as §1, §2, §3, §4, §5, §6, §8

Farage = assay: as above; details: combination with Compound 1; Farage; 72 h
Description: as §1, §2, §3, §4
The isobologram was drawn by identifying the locus of concentrations that correspond to crossing the indicated inhibition level. This is done by finding the crossing point for each single agent concentration in a dose matrix across the concentrations of the other single agent. Practically, each vertical concentration CY is held fixed while a bisection algorithm is used to identify the horizontal concentration CX in combination with that vertical dose that gives the chosen effect level in the response surface Z(CX,CY). These concentrations are then connected by linear interpolation to generate the isobologram display. For synergistic interactions, the isobologram contour fall below the additivity threshold and approaches the origin, and an antagonistic interaction would lie above the additivity threshold. The error bars represent the uncertainty arising from the individual data points used to generate the isobologram. The uncertainty for each crossing point is estimated from the response errors using bisection to find the concentrations where Z−αZ(CX,CY) and Z+σZ(CX,CY) cross Icut, where αZ is the standard deviation of the residual error on the effect scale.
as §5
The fractional inhibition for each component agent and combination point in the matrix is calculated relative to the median of all vehicle-treated control wells.

GRANTA-519 = assay: as above; details: combination with Compound 1
U-2932 = assay: as above; details: combination with Compound 1, 72 h
OCI-Ly7 = assay: as above; details: combination with Compound 1, 72 h
SU-DHL-10-epst = assay: as above; details: combination with Compound 1, 72 h
Mino = assay: as above; details: combination with Compound 1
HH = assay: as above; type: cell-based; details: combination with Compound 1
Description: The method is described as follows.
Additive effect is CI=1.0. […] Antagonistic effect is CI>1.0.
The Synergy Score is calculated as: […]

RL = assay: as above; details: combination with Compound 1, 72 h
Description: as §1, §2, §3, §4, §5, §6, §7

KARPAS-422 = assay: as above; details: combination with Compound 1, 72 h
Jeko-1 = assay: as above; details: combination with Compound 1
NCI-H929 = assay: as above; details: combination with Compound 1
SU-DHL-4-epst = assay: as above; details: combination with Compound 1, 72 h
WSU-NHL = assay: as above; details: combination with Compound 1, 72 h

NC1(c2ccc(-c3nc4ccn5c(=O)[nH]nc5c4cc3-c3ccccc3)cc2)CCC1 [MK-2206, 8-[4-(1-aminocyclobutyl)phenyl]-9-phenyl-2H-[1,2,4]triazolo[3,4-f][1,6]naphthyridin-3-one]
CI50 growth inhibition [1]: S (S=0.01 to <0.5) | CI50 inhibition (OMP-2): U (U=0.7 to <1) | Synergy Score growth inhibition (OMP-2): A3 (A3=>3) | Synergy Score inhibition (OMP-2): A2 (A2=1 to <3) | CI50 growth inhibition (TMD8): S (S=0.01 to <0.5) | CI50 inhibition (TMD8): S (S=0.01 to <0.5) | Synergy Score growth inhibition (TMD8): A3 (A3=>3) | Synergy Score inhibition (TMD8): A3 (A3=>3) | Synergy Score growth inhibition (KARPAS-299): A1 (A1=0.0001 to <1) | Synergy Score inhibition (KARPAS-299): A1 (A1=0.0001 to <1) | CI50 growth inhibition (OCI-Ly3): S (S=0.01 to <0.5) | CI50 inhibition (OCI-Ly3): W (W=≥1) | Synergy Score growth inhibition (OCI-Ly3): A2 (A2=1 to <3) | Synergy Score inhibition (OCI-Ly3): A1 (A1=0.0001 to <1) | CI50 growth inhibition (RPMI-8226): U (U=0.7 to <1) | CI50 inhibition (RPMI-8226): U (U=0.7 to <1) | Synergy Score growth inhibition (RPMI-8226): A2 (A2=1 to <3) | Synergy Score inhibition (RPMI-8226): A1 (A1=0.0001 to <1) | CI50 growth inhibition (DOHH-2): S (S=0.01 to <0.5) | CI50 inhibition (DOHH-2): S (S=0.01 to <0.5) | Synergy Score growth inhibition (DOHH-2): A3 (A3=>3) | Synergy Score inhibition (DOHH-2): A3 (A3=>3) | CI50 growth inhibition (HBL-1): T (T=0.5 to <0.7) | CI50 inhibition (HBL-1): W (W=≥1) | Synergy Score growth inhibition (HBL-1): A2 (A2=1 to <3) | Synergy Score inhibition (HBL-1): A1 (A1=0.0001 to <1) | CI50 growth inhibition (Farage): S (S=0.01 to <0.5) | CI50 inhibition (Farage): S (S=0.01 to <0.5) | Synergy Score growth inhibition (Farage): A3 (A3=>3) | Synergy Score inhibition (Farage): A3 (A3=>3) | CI50 growth inhibition (GRANTA-519): S (S=0.01 to <0.5) | Synergy Score growth inhibition (GRANTA-519): A1 (A1=0.0001 to <1) | Synergy Score inhibition (GRANTA-519): A1 (A1=0.0001 to <1) | CI50 growth inhibition (U-2932): U (U=0.7 to <1) | CI50 inhibition (U-2932): U (U=0.7 to <1) | Synergy Score growth inhibition (U-2932): A1 (A1=0.0001 to <1) | Synergy Score inhibition (U-2932): A1 (A1=0.0001 to <1) | CI50 growth inhibition (OCI-Ly7): U (U=0.7 to <1) | CI50 inhibition (OCI-Ly7): W (W=≥1) | Synergy Score growth inhibition (OCI-Ly7): A1 (A1=0.0001 to <1) | Synergy Score inhibition (OCI-Ly7): A1 (A1=0.0001 to <1) | CI50 growth inhibition (SU-DHL-10-epst): S (S=0.01 to <0.5) | CI50 inhibition (SU-DHL-10-epst): S (S=0.01 to <0.5) | Synergy Score growth inhibition (SU-DHL-10-epst): A3 (A3=>3) | Synergy Score inhibition (SU-DHL-10-epst): A3 (A3=>3) | CI50 growth inhibition (Mino): W (W=≥1) | CI50 inhibition (Mino): U (U=0.7 to <1) | Synergy Score growth inhibition (Mino): A1 (A1=0.0001 to <1) | Synergy Score inhibition (Mino): A1 (A1=0.0001 to <1) | CI50 growth inhibition (HH): S (S=0.01 to <0.5) | CI50 inhibition (HH): S (S=0.01 to <0.5) | Synergy Score growth inhibition (HH): A3 (A3=>3) | Synergy Score inhibition (HH): A2 (A2=1 to <3) | CI50 growth inhibition (RL): S (S=0.01 to <0.5) | CI50 inhibition (RL): S (S=0.01 to <0.5) | Synergy Score growth inhibition (RL): A3 (A3=>3) | Synergy Score inhibition (RL): A3 (A3=>3) | CI50 growth inhibition (KARPAS-422): T (T=0.5 to <0.7) | CI50 inhibition (KARPAS-422): S (S=0.01 to <0.5) | Synergy Score growth inhibition (KARPAS-422): A2 (A2=1 to <3) | Synergy Score inhibition (KARPAS-422): A2 (A2=1 to <3) | CI50 growth inhibition (Jeko-1): S (S=0.01 to <0.5) | CI50 inhibition (Jeko-1): S (S=0.01 to <0.5) | Synergy Score growth inhibition (Jeko-1): A2 (A2=1 to <3) | Synergy Score inhibition (Jeko-1): A2 (A2=1 to <3) | CI50 growth inhibition (NCI-H929): T (T=0.5 to <0.7) | CI50 inhibition (NCI-H929): U (U=0.7 to <1) | Synergy Score growth inhibition (NCI-H929): A3 (A3=>3) | Synergy Score inhibition (NCI-H929): A2 (A2=1 to <3) | CI50 growth inhibition (SU-DHL-4-epst): S (S=0.01 to <0.5) | CI50 inhibition (SU-DHL-4-epst): S (S=0.01 to <0.5) | Synergy Score growth inhibition (SU-DHL-4-epst): A3 (A3=>3) | Synergy Score inhibition (SU-DHL-4-epst): A3 (A3=>3) | CI50 growth inhibition (WSU-NHL): S (S=0.01 to <0.5) | CI50 inhibition (WSU-NHL): S (S=0.01 to <0.5) | Synergy Score growth inhibition (WSU-NHL): A3 (A3=>3) | Synergy Score inhibition (WSU-NHL): A3 (A3=>3)
